# Source: article PMC5325082 (Molecular Pharmacology, 2017)
# Legend:
# α9χY190Tα10χ = type: binding, rat
# α9χW55Tα10χW55T = type: binding, rat
# homomeric α10χ = homomeric α10χ (UniProt P23979+Q9JLB5, L231I/L232I); type: binding, rat
# [1] = test system: homomeric α9χW55T receptors; type: binding, rat
# α10χY190T (homomeric) = type: binding, rat
# α9χα10χY190T = type: binding, rat
# [2] = test system: α9χY190Tα10χY190T (heteromeric double mutant); type: binding, rat
# [3] = target: T1, α9χα10χ (α9 and α10 extracellular domains fused to 5-HT3A) (UniProt P23979+P43144+Q9JLB5, L231I/L232I); assay: [3H]-α-BTX radioligand binding, membranes of transfected tsA201 cells; set-up: species or system rat
# T1 construct: the extracellular N-terminal domain of the α9 or α10 subunit; expressed in transfected cells; host or cells: tsA201 cells (HEK293-derived), membrane preparation
# Description: (§1) Chimeric subunit cDNAs containing the extracellular N-terminal domain of the α9 or α10 subunit fused to the transmembrane and intracellular domain of the mouse 5-HT3A subunit have been described previously ([Baker et al., 2004]). The mammalian cell line tsA201 (derived from the human embryonic kidney 293 cell line) was obtained from Dr. William Green (University of Chicago, Chicago). Cells were cultured in Dulbecco’s modified Eagle’s medium (Invitrogen, Paisley, United Kingdom) containing 2 mM L-GlutaMAX (Invitrogen) plus 10% heat-inactivated fetal calf serum (Sigma, Poole, United Kingdom) with penicillin (100 U/ml) and streptomycin (100 µg/ml) and were maintained in a humidified incubator containing 5% CO2 at 37°C. Cells were transiently transfected using Effectene transfection reagent (QIAGEN, Crawley, United Kingdom) according to the manufacturer’s instructions. In all cases, cells were transfected overnight and assayed for expression approximately 40–48 hours after transfection. To ensure that the levels of radioligand binding were not influenced by differences in the amount of subunit cDNA expressed, the amount of each subunit plasmid DNA and also the total amount of plasmid DNA were kept constant when subunits were expressed singly and in combination. This was achieved by the inclusion of empty plasmid expression vector when single subunits were transfected.
# (§2) Binding studies with [^3H]-α-bungarotoxin (α-BTX) in cell membrane preparations were performed essentially as described previously ([Lansdell and Millar, 2000]; [Harkness and Millar, 2002]). Membranes (typically, 10–100 µg of protein) were incubated with radioligand (final concentration 20 nM) for 150 minutes at 4°C in a total volume of 300 µl in the presence of protease inhibitors leupeptin (2 µg/ml) and pepstatin (1 µg/ml). Our standard protocol for determining nonspecific binding was the addition of 1 mM carbachol, 1 mM nicotine, and 10 µM methyllycaconitine to triplicate samples. […] In all cases the levels of specific binding were determined by subtracting the level of nonspecific binding from the total binding (both of which were determined in triplicate). The data were determined as means of three independent experiments, each performed in triplicate. Radioligand binding was assayed by filtration onto 0.5% polyethylenimine-presoaked Whatman GF/B filters (Sigma-Aldrich, Dorset, England) followed by rapid washing (typically, five washes, each of 4 ml) with ice-cold 10 mM phosphate buffer using a Brandel cell harvester, and radioactivity was determined by scintillation counting. […] Protein concentrations were determined using bovine serum albumin standards (Bio-Rad, Hercules, CA).
# α9χα10χW55T = target: T2, α9χα10χW55T (UniProt P23979+P43144+Q9JLB5, L231I/L232I/W81T); assay: as above; set-up: species or system rat
# T2 construct: containing the extracellular N-terminal domain of the α9 or α10 subunit fused to the transmembrane and intracellular domain of the mouse 5-HT3A subunit; mouse 5-HT3A subunit transmembrane and intracellular domain (fusion partner); expressed in transfected cells; host or cells: tsA201 (derived from human embryonic kidney 293), transient transfection; membrane preparations
# Description: as §1, §2
# [4] = test system: homomeric α10χW55T receptors; type: binding, rat
# α9χW55Tα10χ = α9χW55Tα10χ (UniProt P23979+P43144+Q9JLB5, L231I/L232I/W82T); type: binding, rat
# α9χY190T (homomeric) = type: binding, rat
substance,measurement,setting,value
α-bungarotoxin [[^3H]-α-BTX],"Specific binding of [3H]-α-BTX, fold higher than homomeric α10χ",α9χY190Tα10χ,4 fold
same,"Specific binding of [3H]-α-BTX, fold lower than wild-type α9χα10χ",α9χY190Tα10χ,6 fold
same,Specific binding of [3H]-α-BTX,α9χW55Tα10χW55T,binding levels similar to those observed with either α10χ or α10χW55T when expressed alone
same,Specific binding of [3H]-α-BTX,homomeric α10χ,1.4 ± 0.5 fmol/mg
same,Specific binding of [3H]-α-BTX,[1],no detectable specific binding
same,Specific binding of [3H]-α-BTX,α10χY190T (homomeric),complete loss of specific binding
same,"Specific binding of [3H]-α-BTX, fold lower than wild-type α9χα10χ",α9χα10χY190T,4 fold
same,Specific binding of [3H]-α-BTX,[2],complete loss of specific binding
same,"Specific binding of [3H]-α-BTX, fold higher than α9χ expressed alone",[3],6 fold
same,Specific binding of [3H]-α-BTX,α9χα10χW55T,specific binding levels similar to those observed with wild-type heteromeric α9χα10χ receptors
same,Specific binding of [3H]-α-BTX,[4],2.5 ± 0.6 fmol/mg
same,Specific binding of [3H]-α-BTX,α9χW55Tα10χ,binding levels similar to those observed with either α10χ or α10χW55T when expressed alone
same,Specific binding of [3H]-α-BTX,α9χY190T (homomeric),complete loss of specific binding
